Like-named read-outs stand apart in the source and are kept apart here.
Assays:
[1] = target: PARP-1 enzyme (Homo sapiens (Human), UniProt P09874); assay: PARP-1 enzyme activity test (chemical fluorescence detection kit, BPS Bioscience); format: biochemical
Description: PARP-1 chemical fluorescence detection kit was purchased from BPS Bioscience. The histone solution in the kit was diluted 5× with 1×PBS, and 25 μL of the diluted histone solution was added to a microwell plate and incubated overnight at 4° C. After the incubation, the plate was washed three times with PBST (0.05% Tween-20). 100 μL of the blocking solution was added to the microwell plate and incubated at 25° C. for 90 minutes. After the incubation was completed, the plate was washed three times with PBST. 2.5 μL of compounds at different concentrations diluted in test buffer and 12.5 μL of substrate mixed solution (1.25 μL 10×PARP test buffer; 1.25 μL 10×PARP test mixed solution; 2.5 μL Activated DNA, 7.5 μL double-distilled water) were added to the microwell plate. The PARP-1 enzyme was diluted to 2 ng/μL, […] was added to the microwell plate, and the reaction system was incubated at 25° C. for 60 minutes.
After the incubation was completed, the plate was washed three times with PBST. Streptavidin-HRP was diluted 50× with a blocking solution, and 25 μL of the diluent was added to the microwell plate and incubated at 25° C. for 30 minutes. After the incubation, the plate was washed three times with PBST. ELISA ECL substrate A and substrate B were uniformly mixed at a ratio of 1:1 (v/v), 50 μL of the mixture was added to the microwell plate, and the chemiluminescence value was read.
The inhibition rate was calculated according to formula 1, where RLUsample was the readout of the compound well, RLUmax was the readout of the solvent control well, and RLUmin was the readout of the control well without the PARP-1 enzyme. Curve fitting was performed by four parameters (log(inhibitor) vs. response—Variable slope) using GraphPad Prism software, and the ICso value was calculated.
Inhibition %=(1−(RLUsample−RLUmin)/(RLUmax−RLUmin))×100% (formula 1)

[2] = Pharmacokinetic test in mice; format: in vivo, Balb/c mice; conditions: for pharmacokinetic characteristics in mice: conclusion in words; for Kp at 24 h / AUC(0-t) / clearance / Vd / bioavailability: male, Balb/c, mouse, mice; for Kp at 24 h: brain/plasma, 24 h after administration, read-out: Brain/Plasma Ratio (24 h); for AUC(0-t) / clearance / Vd / bioavailability: plasma; for Vd: read-out: Vdss
Description: 4.1 Experimental animal: male Balb/c mice, 20-25 g, 12 mice/compound, purchased from Chengdu Ddossy Experimental Animals Co., Ltd.
4.2 Experimental design: on the day of the test, 60 Balb/c mice were randomly grouped according to their body weights. The animals were fasted with water available for 12 to 14 h one day before the administration and were fed 4 h after the administration.
(§1) Before and after the administration, 0.06 mL ofblood was taken from the orbit of the animals under isoflurane anesthesia and placed in an EDTAK2 centrifuge tube. The blood was centrifuged at 5000 rpm and 4° C. for 10 min to collect plasma. The blood collection time points for the intravenous administration group and intragastric administration group were 0, 5 min, 15 min, 30 min, 1 h, 2 h, 4 h, 6 h, 8 h, and 24 h. The brain tissues were collected at 30 min, 2 h and 24 h after administration of compounds 12, 15 and 18, respectively. The brain tissues were collected 24 hours after administration of compounds 2 and 5, rinsed with cold physiological saline to remove the residual blood on the surface, drained out and then homogenized. Before analysis and detection, all samples were stored at −80° C. The samples were analyzed quantitatively by LC-MS/MS.

[3] = system: MDA-MB-436 cells; assay: MDA-MB-436 cell activity test (CellTiter-Glo, 7 days); format: cell-based; conditions: for IC50: 7 days incubation; for inhibition at 10 µM: read-out: Max inh. % 10 μM
Description: Breast tumor cells MDA-MB-436 were purchased from ATCC, the culture medium was Leibovitz's L-15+10% FBS, and the cells were cultured in a CO2-free incubator at 37° C. On day 1, the cells in the exponential growth phase were collected, and the cell suspension was adjusted to 4000 cells/135 μL with the culture medium. 135 μL of the cell suspension was added to each well of a 96-well cell culture plate and incubated overnight. On day 2, compounds at different concentrations were added, and the plate was placed in the incubator and incubated for 7 days. After the incubation was completed, according to operation instructions for a CellTiter-Glo kit (Promega, G7573), 75 μL of CTG solution, which was already pre-melted and equilibrated to room temperature, was added to each well, and the mixture was uniformly mixed for 2 min using a microplate shaker. The plate was placed at room temperature for 10 min, and then […] were measured using an Envision2104 plate reader (PerkinElmer). The inhibition rate was calculated using formula (1), where RLUcompound was the readout of the drug treated group, RLUcontrol was the average value of the vehicle control group, and RLUblank was the average value of the cell-free well. The IC50 value was calculated using GraphPad Prism software

[4] = Pharmacokinetic test in rats; format: in vivo, SD rats; conditions: for pharmacokinetic characteristics in rats: conclusion in words; for Kp at 24 h / AUC(0-t) / clearance / Vd / bioavailability: male, SD, rat, rats; for Kp at 24 h: brain/plasma, intravenous, 2.5 mg/kg, 24 h after administration, read-out: Brain/Plasma Ratio (24 h); for AUC(0-t) / clearance / Vd / bioavailability: plasma; for Vd: read-out: Vdss
Description: 3.1 Experimental animal: male SD rats, about 220 g, 6-8 weeks old, 6 rats/compound, purchased from Chengdu Ddossy Experimental Animals Co., Ltd.
3.2 Experimental design: on the day of the experiment, 30 SD rats were randomly grouped according to their body weights. The animals were fasted with water available for 12 to 14 h one day before the administration and were fed 4 h after the administration.
as §1, with “administration, 0.15 ml of blood” for “administration, 0.06 mL ofblood”, “8 h” for “8 h,”, “collected” for “collected at 30 min, 2 h and 24 h after administration of compounds 12, 15 and 18, respectively. The brain tissues were collected”, “after administration,” for “after administration of compounds 2 and 5,”

[5] = Pharmacokinetic test in monkeys; format: in vivo, cynomolgus monkeys
Description: 6.1 Experimental animal: male cynomolgus monkeys, 3-5 kg, 3-6 years old, 4 monkeys/compound, purchased from Suzhou Xishan Biotechnology Inc.
6.2 Test method: On the day of the experiment, 8 monkeys were randomly grouped according to their body weights. The animals were fasted with water available for 14 to 18 h one day before the administration, and were fed 4 h after the administration.
Before and after the administration, 1.0 mL of blood was taken from the limb veins and placed in an EDTAK2 centrifuge tube. The blood was centrifuged at 5000 rpm and 4° C. for 10 min to collect plasma. The blood collection time points for the intravenous administration group were 0, 5 min, 15 min, 30 min, 1 h, 2 h, 4 h, 6 h, 8 h, 10 h, 12 h, 24 h and 48 h. Before analysis and detection, all samples were stored at −80° C. The samples were analyzed quantitatively by LC-MS/MS.

[6] = grades, read-out: PARP-1 enzyme activity IC50
[7] = Homo sapiens, MDA-MB-436, 168 h
[8] = Homo sapiens, 10 μM, MDA-MB-436 cells
[9] = male, cynomolgus monkey, iv, monkeys, i.v. (1 mg/kg), plasma

PARP-1 enzyme, sequence (P09874 whole entry): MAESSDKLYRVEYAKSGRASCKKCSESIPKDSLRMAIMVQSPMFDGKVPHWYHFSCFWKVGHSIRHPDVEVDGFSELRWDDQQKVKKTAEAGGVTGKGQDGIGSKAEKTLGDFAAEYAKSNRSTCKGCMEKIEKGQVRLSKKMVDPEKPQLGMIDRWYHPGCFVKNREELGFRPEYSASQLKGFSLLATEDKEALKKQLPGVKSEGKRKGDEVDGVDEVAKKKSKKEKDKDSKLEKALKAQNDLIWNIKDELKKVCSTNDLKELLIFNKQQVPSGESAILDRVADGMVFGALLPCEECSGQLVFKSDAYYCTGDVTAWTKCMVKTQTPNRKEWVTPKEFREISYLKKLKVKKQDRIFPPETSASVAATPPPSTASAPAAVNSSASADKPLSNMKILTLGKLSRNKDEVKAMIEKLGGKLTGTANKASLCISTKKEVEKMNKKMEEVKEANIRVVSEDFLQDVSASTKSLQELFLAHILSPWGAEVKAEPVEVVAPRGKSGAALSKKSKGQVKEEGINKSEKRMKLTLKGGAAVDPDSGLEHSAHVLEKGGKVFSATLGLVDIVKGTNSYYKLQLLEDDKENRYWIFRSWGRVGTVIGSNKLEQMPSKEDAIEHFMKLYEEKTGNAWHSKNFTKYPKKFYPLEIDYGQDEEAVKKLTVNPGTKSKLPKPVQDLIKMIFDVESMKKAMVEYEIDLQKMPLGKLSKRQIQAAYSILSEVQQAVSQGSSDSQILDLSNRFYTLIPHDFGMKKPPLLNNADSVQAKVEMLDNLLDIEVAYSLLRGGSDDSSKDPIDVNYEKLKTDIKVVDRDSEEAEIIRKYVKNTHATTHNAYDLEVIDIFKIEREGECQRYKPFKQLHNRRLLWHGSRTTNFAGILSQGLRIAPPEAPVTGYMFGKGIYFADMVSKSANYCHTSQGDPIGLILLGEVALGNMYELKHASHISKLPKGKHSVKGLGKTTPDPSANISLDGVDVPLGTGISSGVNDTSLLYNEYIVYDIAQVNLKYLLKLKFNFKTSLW

Compound	IC50 [1, 6]	pharmacokinetic characteristics in mice [2]	AUC(0-t) ([2]; iv, i.v. 2.5 mg/kg)	clearance ([2]; iv, i.v. 2.5 mg/kg)	Vd ([2]; iv, i.v. 2.5 mg/kg)	bioavailability ([2]; po, i.g. 10 mg/kg)	AUC(0-t) ([2]; po, i.g. 10 mg/kg)	IC50 [3, 7]	pharmacokinetic characteristics in rats [4]	AUC(0-t) ([4]; iv, i.v. 2.5 mg/kg)	clearance ([4]; iv, i.v. 2.5 mg/kg)	Vd ([4]; iv, i.v. 2.5 mg/kg)	bioavailability ([4]; po, i.g. 10 mg/kg)	AUC(0-t) ([4]; po, i.g. 10 mg/kg)	inhibition at 10 µM [3, 8]	further results
Cc1nc2ccc(CN3CCN(c4ccc(C(=O)N[C@H]5C[C@H]5F)nc4F)CC3)c(F)c2[nH]c1=O [Compound 5, 6-fluoro-5-(4-((5-fluoro-2-methyl-3-oxo-3,4-dihydroquinoxalin-6-yl)methyl)piperazin-1-yl)-N-((1S,2R)-2-fluorocyclopropyl)picolinamide]	< 5 nM	good pharmacokinetic characteristics	2750 ± 212 ng·h/mL	15.2 ± 1.1 mL/min/kg	2.85 ± 0.23 L/kg	≥ 98%	12700 ± 817 ng·h/mL	28 nM	–	–	–	–	–	–	79.8%	Kp at 24 h [2]: 0.911
Cc1nc2ccc(CN3CCN(c4ccc(C(=O)N[C@@H]5C[C@@H]5F)nc4F)CC3)c(F)c2[nH]c1=O [Compound 4, 6-fluoro-5-(4-((5-fluoro-2-methyl-3-oxo-3,4-dihydroquinoxalin-6-yl)methyl)piperazin-1-yl)-N-((1R,2S)-2-fluorocyclopropyl)picolinamide]	< 5 nM	–	–	–	–	–	–	32.8 nM	good pharmacokinetic characteristics	7390 ± 663 ng·h/mL	5.36 ± 0.068 mL/min/kg	1.13 ± 0.071 L/kg	≥ 98%	33400 ± 2670 ng·h/mL	80.1%	Kp at 24 h [4]: 0.315
Cc1nc2ccc(CN3CCN(c4ccc(C(=O)Nc5cnn(C)c5)nc4F)CC3)c(F)c2[nH]c1=O [Compound 2, 6-fluoro-5-(4-((5-fluoro-2-methyl-3-oxo-3,4-dihydroquinoxalin-6-yl)methyl)piperazin-1-yl)-N-(1-methyl-1H-pyrazol-4-yl)picolinamide]	< 5 nM	good pharmacokinetic characteristics	1870 ± 154 ng·h/mL	21.6 ± 1.3 mL/min/kg	2.09 ± 0.52 L/kg	97.4%	7270 ± 793 ng·h/mL	3.5 nM	–	–	–	–	–	–	86%	IC50 ([1]; read-out: IC50 value on PARP-1): 0.79 nM; Kp at 24 h [2]: 5.23
1-(difluoromethyl)-N-(5-(4-((2-(difluoroethyl(-5-fluoro-3-oxo-3,4-dihydroquinoxalin-6-yl)methyl)piperazin-1-yl)-6-fluoropyridin-2-yl)-1H-pyrazole-4-carboxamide [Compound 17]	< 5 nM	–	–	–	–	–	–	–	–	–	–	–	–	–	–	Max inh. % 10 μM ([3]; 10 μM, MDA-MB-436 cells): 72.33%; IC50 [3]: 19.4 nM
Cc1nc2ccc(CN3CC=C(c4ccc(C(=O)Nc5cnn(C)c5)nc4F)CC3)c(F)c2[nH]c1=O [Compound 9, 2-fluoro-1′-((5-fluoro-2-methyl-3-oxo-3,4-dihydroquinoxalin-6-yl)methyl)-N-(1-methyl-1H-pyrazol-4-yl)-1′,2′,3′,6′-tetrahydro-[3,4′-bipyridine]-6-carboxamide]	–	–	–	–	–	–	–	1.5 nM	–	–	–	–	–	–	84.4%	–

Second part, led by results:

IC50 [1, 6]	pharmacokinetic characteristics in mice [2]	AUC(0-t) ([2]; iv, i.v. 2.5 mg/kg)	clearance ([2]; iv, i.v. 2.5 mg/kg)	Vd ([2]; iv, i.v. 2.5 mg/kg)	bioavailability ([2]; po, i.g. 10 mg/kg)	AUC(0-t) ([2]; po, i.g. 10 mg/kg)	IC50 [3, 7]	pharmacokinetic characteristics in rats [4]	AUC(0-t) ([4]; iv, i.v. 2.5 mg/kg)	clearance ([4]; iv, i.v. 2.5 mg/kg)	Vd ([4]; iv, i.v. 2.5 mg/kg)	bioavailability ([4]; po, i.g. 10 mg/kg)	AUC(0-t) ([4]; po, i.g. 10 mg/kg)	Compound	inhibition at 10 µM [3, 8]	further results
< 5 nM	–	–	–	–	–	–	24.3 nM	good pharmacokinetic characteristics	48700 ± 4800 ng·h/mL	0.859 ± 0.09 mL/min/kg	0.148 ± 0.01 L/kg	70.9 ± 3.4%	138000 ± 6650 ng·h/mL	Cn1cc(C(=O)Nc2ccc(N3CCN(Cc4ccc5nc(C(F)F)c(=O)[nH]c5c4F)CC3)c(F)n2)cn1 [Compound 14, N-(5-(4-((2-(difluoromethyl)-5-fluoro-3-oxo-3,4-dihydroquinoxalin-6-yl)methyl)piperazin-1-yl)-6-fluoropyridin-2-yl)-1-methyl-1H-pyrazole-4-carboxamide]	73.2%	pharmacokinetic characteristics in monkeys ([5]; conclusion in words): good pharmacokinetic characteristics; AUC(0-t) [5, 9]: 47100 ± 6260 ng·h/mL; clearance [5, 9]: 0.348 ± 0.057 mL/min/kg; Vd ([5]; male, cynomolgus monkey, iv, monkeys, i.v. (1 mg/kg), plasma, read-out: Vdss): 0.151 ± 0.022 L/kg; bioavailability ([5]; male, cynomolgus monkey, plasma, po, monkeys, i.g. (3 mg/kg)): 56.8 ± 4.9%; AUC(0-t) ([5]; male, cynomolgus monkey, po, monkeys, i.g. (3 mg/kg), plasma): 80100 ± 6960 ng·h/mL
< 5 nM	good pharmacokinetic characteristics	8150 ± 811 ng·h/mL	5.14 ± 0.53 mL/min/kg	0.582 ± 0.029 L/kg	≥ 98%	32300 ng·h/mL	–	good pharmacokinetic characteristics	22000 ± 838 ng·h/mL	1.9 ± 0.071 mL/min/kg	0.294 ± 0.011 L/kg	≥ 98%	87600 ± 11700 ng·h/mL	Cn1cc(C(=O)Nc2ccc(N3CCN(Cc4ccc5nc(C(F)F)c(=O)[nH]c5c4F)CC3)c(F)n2)c(F)n1 [Compound 18, N-(5-(4-((2-(difluoromethyl)-5-fluoro-3-oxo-3,4-dihydroquinoxalin-6-yl)methyl)piperazin-1-yl)-6-fluoropyridin-2-yl)-3-fluoro-1-methyl-1H-pyrazole-4-carboxamide]	–	–
–	good pharmacokinetic characteristics	16300 ± 1740 ng·h/mL	2.57 ± 0.29 mL/min/kg	0.342 ± 0.04 L/kg	≥ 98%	67200 ng·h/mL	6.8 nM	good pharmacokinetic characteristics	25800 ± 2870 ng·h/mL	1.63 ± 0.18 mL/min/kg	0.192 ± 0.022 L/kg	87.2 ± 14%	89800 ± 14000 ng·h/mL	Cn1cc(NC(=O)c2ccc(N3CCN(Cc4ccc5nc(C(F)F)c(=O)[nH]c5c4F)CC3)c(F)n2)cn1 [Compound 15]	74.2%	Kp at 24 h [4]: 0.916

— patent US20250346571A1, “BICYCLIC DERIVATIVE PARP INHIBITOR AND USE THEREOF” (XIZANG HAISCO PHARMACEUTICAL CO., LTD., priority 2022, published 2025)
